Assay results taken from BindingDB's records for doi:10.7270/Q2736PBV (Broad Institute, 2009).

Molecular target: T1, Streptokinase A (Streptococcus pyogenes serotype M1, UniProt P10520)
T1 sequence (P10520 whole entry): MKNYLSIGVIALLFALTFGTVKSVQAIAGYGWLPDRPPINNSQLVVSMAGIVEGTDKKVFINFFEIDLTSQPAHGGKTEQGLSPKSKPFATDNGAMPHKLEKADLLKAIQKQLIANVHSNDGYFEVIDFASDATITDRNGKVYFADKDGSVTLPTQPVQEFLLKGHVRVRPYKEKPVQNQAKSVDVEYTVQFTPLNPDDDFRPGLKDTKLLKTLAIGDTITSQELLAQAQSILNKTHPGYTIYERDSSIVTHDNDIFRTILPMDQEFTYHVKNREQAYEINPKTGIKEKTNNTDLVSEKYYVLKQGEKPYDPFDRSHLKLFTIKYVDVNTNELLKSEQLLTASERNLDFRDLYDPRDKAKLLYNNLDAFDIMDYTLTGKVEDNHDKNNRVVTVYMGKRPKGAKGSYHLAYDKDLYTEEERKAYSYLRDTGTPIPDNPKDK
Test: S. pyogenes streptokinase expression inhibitors, potency, dose response, plasminogen activation absorbance, OD405 (AID 1914)

For `COC(=O)C1C(C)=NC2=C(C(=O)c3ccccc32)C1c1ccc(-c2ccc(C(=O)O)cc2)o1` (stereo not drawn) [4-{5-[3-(methoxycarbonyl)-2-methyl-5-oxo-4,5-dihydro-1H-indeno[1,2-b]pyridin-4-yl]-2-furyl}benzoic acid], the EC50 was > 150 µM.
In the case of `CCOc1cc(CN=Nc2cc(C)nc(-n3nc(C)cc3C)n2)ccc1O` [4-{[2-(3,5-Dimethyl-pyrazol-1-yl)-6-methyl-pyrimidin-4-yl]-hydrazonomethyl}-2-ethoxy-phenol], the EC50 is reported as > 150 µM.
In the case of `CC1(C)CC(=O)C(C2C3=C(CC(C)(C)CC3=O)Oc3c(Br)cc(Br)cc32)C(=O)C1` (stereo not drawn) [5,7-bis(bromanyl)-9-(4,4-dimethyl-2-oxidanyl-6-oxidanylidene-cyclohexen-1-yl)-3,3-dimethyl-4,9-dihydro-2H-xanthen-1-one], the EC50 is reported as 24.8 µM.
In the case of `Cc1ccsc1C1CC(c2cccc(Br)c2)=Nc2ncnn21` (stereo not drawn) [5-(3-bromophenyl)-7-(3-methylthien-2-yl)-4,7-dihydro[1,2,4]triazolo[1,5-a]pyrimidine], the EC50 is reported as > 150 µM.
In the case of `Oc1nc(N=NCc2cccs2)sc1Cc1ccc(Cl)c(Cl)c1` [5-[(3,4-dichlorophenyl)methyl]-2-[2-(thiophen-2-ylmethylidene)hydrazinyl]-4-thiazolone], the EC50 is reported as > 150 µM.
In the case of `Oc1ccccc1CN=Nc1nc(O)c(Cc2ccc(F)cc2)s1` [5-[(4-fluorophenyl)methyl]-2-[2-[(E)-(6-oxidanylidenecyclohexa-2,4-dien-1-ylidene)methyl]hydrazinyl]-1,3-thiazol-4-one], the EC50 is reported as > 150 µM.
In the case of `CCc1ccc2c(c1)=C(NNc1nc(-c3ccccc3)cs1)C(=O)N=2` [5-ethyl-1H-indole-2,3-dione 3-[(4-phenyl-1,3-thiazol-2(3H)-ylidene)hydrazone]], the EC50 is reported as > 150 µM.
With `COc1cc(CN=Nc2nc(Nc3ccccc3)nc(-n3nc(C)cc3C)n2)cc(OC)c1OC` [6-(3,5-dimethylpyrazol-1-yl)-N4-phenyl-N2-[(3,4,5-trimethoxyphenyl)methylideneamino]-1,3,5-triazine-2,4-diamine] the EC50 was > 150 µM.
For `COc1ccc(OC)c(C2CC(C34CC5CC(CC(C5)C3)C4)=NC(=S)N2)c1` (stereo not drawn) [6-Adamantan-1-yl-4-(2,5-dimethoxy-phenyl)-3,4-dihydro-1H-pyrimidine-2-thione], the EC50 was 14.7 µM.
With `CCOc1cccc(CN=Nc2ccc(S(=O)(=O)N(CC)CC)cn2)c1O` [6-[2-[(E)-(5-ethoxy-6-oxidanylidene-cyclohexa-2,4-dien-1-ylidene)methyl]hydrazinyl]-N,N-diethyl-pyridine-3-sulfonamide] the EC50 was > 150 µM.
`O=Nc1c(C2C(=O)Nc3cc(Br)ccc32)[nH]c2ccccc12` (stereo not drawn) [6-bromoindirubin-3-oxime] showed an EC50 of 44.9 µM.
For `CC(N=Nc1nc2ccc(Cl)cc2o1)c1ccccc1` (stereo not drawn) [6-chloranyl-N-(1-phenylethylideneamino)-1,3-benzoxazol-2-amine], the EC50 was > 150 µM.
In the case of `O=c1ccc2[n+]([O-])c3ccccc3n(O)c-2c1` [10-hydroxy-5-oxidophenazin-5-ium-2-one], the EC50 is reported as > 150 µM.
`CC(N=Nc1nc(N2CCCCCC2)nc(N2CCCCCC2)n1)c1ccccc1` (stereo not drawn) [(1E)-1-phenylethanone (4,6-diazepan-1-yl-1,3,5-triazin-2-yl)hydrazone] was tested, and the EC50 was 5.5 µM.
With `CC(=O)c1cccc2c1NC(=C1Nc3ccccc3C1=O)C2=O` [(2E)-7-ethanoyl-2-(3-oxidanylidene-1H-indol-2-ylidene)-1H-indol-3-one] the EC50 was 116 µM.
With `CCOC(=O)C1=C(Cc2ccc(CC)cc2)C(=O)c2ccccc2C1=O` [(2E,3Z)-2-[ethoxy(hydroxy)methylidene]-3-[(4-ethylphenyl)methylidene]naphthalene-1,4-dione] the EC50 was > 150 µM.
`Cc1ccc(SCC(=O)C(C#N)c2nc3ccccc3s2)cc1` (stereo not drawn) [(2Z)-2-(3H-1,3-benzothiazol-2-ylidene)-3-keto-4-(p-tolylthio)butyronitrile] was tested, and the EC50 was > 150 µM.
For `N#CC(C(=O)COc1ccccc1)c1nc2ccccc2s1` (stereo not drawn) [(2Z)-2-(3H-1,3-benzothiazol-2-ylidene)-3-keto-4-phenoxy-butyronitrile], the EC50 was 7.55 µM.
